Experimental data reported in PubChem BioAssay AID1919000 (Molecular Pharmacology Branch, DTP, NCI, 2023).
Blank lines part the entries; values can stand above or below the molecule they belong to.

Tested on: 653999-131-R-J2-PDC complex spheroids, growth % test/control
Test: Anticancer human tumor 653999-131-R-J2-PDC patient-derived lung adenocarcinoma cell line growth inhibition [AhR]
Conditions: for IC50: curve of first compound; for viability, T/C: stronger effect = lower value
Method in brief: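 Agents were dosed in half-log steps down from roughly clinical Cmax, or from 10 microM where Cmax was unknown, alone and with AhR antagonists. Read-out: percent test/control growth of tumor spheroids containing HUVEC and MSC stromal cells.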

[1] = second compound 0.1 µM, first compound 0.0316 µM
[2] = second compound 0.1 µM, first compound 0.1 µM
[3] = second compound 0.1 µM, first compound 0.316 µM
[4] = second compound 0.1 µM, first compound 1 µM
[5] = second compound 0.1 µM, first compound 3.16 µM
[6] = second compound 0.1 µM, first compound 10 µM
[7] = second compound 0.316 µM, first compound 0.0316 µM
[8] = second compound 0.316 µM, first compound 0.1 µM
[9] = second compound 0.316 µM, first compound 0.316 µM
[10] = second compound 0.316 µM, first compound 1 µM
[11] = second compound 0.316 µM, first compound 3.16 µM
[12] = second compound 0.316 µM, first compound 10 µM
[13] = second compound 1 µM, first compound 0.0316 µM
[14] = second compound 1 µM, first compound 0.1 µM
[15] = second compound 1 µM, first compound 0.316 µM
[16] = second compound 1 µM, first compound 1 µM
[17] = second compound 1 µM, first compound 3.16 µM
[18] = second compound 1 µM, first compound 10 µM
[19] = second compound 3.16 µM, first compound 0.0316 µM
[20] = second compound 3.16 µM, first compound 0.1 µM
[21] = second compound 3.16 µM, first compound 0.316 µM
[22] = second compound 3.16 µM, first compound 1 µM
[23] = second compound 3.16 µM, first compound 3.16 µM
[24] = second compound 3.16 µM, first compound 10 µM
[25] = second compound 10 µM, first compound 0.0316 µM
[26] = second compound 10 µM, first compound 0.1 µM
[27] = second compound 10 µM, first compound 0.316 µM
[28] = second compound 10 µM, first compound 1 µM
[29] = second compound 10 µM, first compound 3.16 µM
[30] = second compound 10 µM, first compound 10 µM
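Further: spheroids exposed to agents for seven days.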
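Wherever viability, T/C is given: 100% = DMSO vehicle control viability.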

IC50 (second compound 0.1 µM): 2.93 µM | IC50 (second compound 0.316 µM): 2.89 µM | IC50 (second compound 1 µM): 3.06 µM | IC50 (second compound 3.16 µM): 2.71 µM | IC50 (second compound 10 µM): 0.388 µM
SMILES: Nc1ccccc1NC(=O)c1ccc(CNC(=O)OCc2cccnc2)cc1 + Cc1cncc(-c2nc(NCCc3c[nH]c4ccccc34)c3ncn(C(C)C)c3n2)c1
viability, T/C [1]: 85.2% | viability, T/C [2]: 86.2% | viability, T/C [3]: 88.8% | viability, T/C [4]: 61.4% | viability, T/C [5]: 52% | viability, T/C [6]: 15.9% | viability, T/C [7]: 91.1% | viability, T/C [8]: 85.9% | viability, T/C [9]: 84.3% | viability, T/C [10]: 57.2% | viability, T/C [11]: 56.6% | viability, T/C [12]: 13.2% | viability, T/C [13]: 88.3% | viability, T/C [14]: 86.7% | viability, T/C [15]: 69.3% | viability, T/C [16]: 65.7% | viability, T/C [17]: 55.6% | viability, T/C [18]: 13.3% | viability, T/C [19]: 93% | viability, T/C [20]: 113% | viability, T/C [21]: 88.4% | viability, T/C [22]: 57.7% | viability, T/C [23]: 55.4% | viability, T/C [24]: 8.91% | viability, T/C [25]: 66.7% | viability, T/C [26]: 46.9% | viability, T/C [27]: 45.3% | viability, T/C [28]: 44.3% | viability, T/C [29]: 36.6% | viability, T/C [30]: 4.53%

IC50 (second compound 0.1 µM): 2.99 µM | IC50 (second compound 0.316 µM): 3.32 µM | IC50 (second compound 1 µM): 3.3 µM | IC50 (second compound 3.16 µM): 3.48 µM | IC50 (second compound 10 µM): 1.46 µM
SMILES: O=C(C=Cc1cccc(S(=O)(=O)Nc2ccccc2)c1)NO + Cc1cncc(-c2nc(NCCc3c[nH]c4ccccc34)c3ncn(C(C)C)c3n2)c1
viability, T/C [1]: 91.4% | viability, T/C [2]: 96.3% | viability, T/C [3]: 88% | viability, T/C [4]: 74.5% | viability, T/C [5]: 49.2% | viability, T/C [6]: 10.7% | viability, T/C [7]: 94.1% | viability, T/C [8]: 96.7% | viability, T/C [9]: 89% | viability, T/C [10]: 76.5% | viability, T/C [11]: 52.2% | viability, T/C [12]: 10.6% | viability, T/C [13]: 95.8% | viability, T/C [14]: 104% | viability, T/C [15]: 98.3% | viability, T/C [16]: 91.2% | viability, T/C [17]: 51.6% | viability, T/C [18]: 9.38% | viability, T/C [19]: 104% | viability, T/C [20]: 99.5% | viability, T/C [21]: 95.1% | viability, T/C [22]: 79.3% | viability, T/C [23]: 53.7% | viability, T/C [24]: 11.8% | viability, T/C [25]: 54.7% | viability, T/C [26]: 50.4% | viability, T/C [27]: 50.4% | viability, T/C [28]: 51.7% | viability, T/C [29]: 46.9% | viability, T/C [30]: 8.52%

IC50 (second compound 0.1 µM): > 10 µM | IC50 (second compound 0.316 µM): > 10 µM | IC50 (second compound 1 µM): > 10 µM | IC50 (second compound 3.16 µM): > 10 µM | IC50 (second compound 10 µM): 3.01 µM
SMILES: O=C(c1cc(Cc2n[nH]c(=O)c3ccccc23)ccc1F)N1CCN(C(=O)C2CC2)CC1 + Cc1cncc(-c2nc(NCCc3c[nH]c4ccccc34)c3ncn(C(C)C)c3n2)c1
viability, T/C [1]: 99.2% | viability, T/C [2]: 101% | viability, T/C [3]: 92.2% | viability, T/C [4]: 94% | viability, T/C [5]: 97.7% | viability, T/C [6]: 79.3% | viability, T/C [7]: 96.2% | viability, T/C [8]: 106% | viability, T/C [9]: 97.1% | viability, T/C [10]: 102% | viability, T/C [11]: 91.5% | viability, T/C [12]: 86.3% | viability, T/C [13]: 108% | viability, T/C [14]: 114% | viability, T/C [15]: 112% | viability, T/C [16]: 103% | viability, T/C [17]: 96.9% | viability, T/C [18]: 91.3% | viability, T/C [19]: 102% | viability, T/C [20]: 109% | viability, T/C [21]: 112% | viability, T/C [22]: 114% | viability, T/C [23]: 101% | viability, T/C [24]: 91.3% | viability, T/C [25]: 61.2% | viability, T/C [26]: 61.1% | viability, T/C [27]: 55.1% | viability, T/C [28]: 55.5% | viability, T/C [29]: 49.3% | viability, T/C [30]: 44.7%
